Results: patent US20240246966A1, “NEW PYRAZOLO[1,5-a] PYRIMIDINE DERIVATIVES AS SIGMA LIGANDS” (ACONDICIONAMIENTO TARRASENSE, priority 2021, published 2024)

Key:
Human σ2/TMEM97 receptor = molecular target: T1, Human σ2/TMEM97 receptor (Homo sapiens, UniProt Q5BJF2); assay: Binding assay to human σ2/TMEM97 receptor ([3H]-DTG, transfected HEK-293 membranes); conditions: human σ2/TMEM97, [3H]-DTG 10 nM, binding expressed as Ki, read-out: Binding σ-2
T1 construct: expressed in transfected cells; host or cells: HEK-293
T1 sequence (Q5BJF2 whole entry): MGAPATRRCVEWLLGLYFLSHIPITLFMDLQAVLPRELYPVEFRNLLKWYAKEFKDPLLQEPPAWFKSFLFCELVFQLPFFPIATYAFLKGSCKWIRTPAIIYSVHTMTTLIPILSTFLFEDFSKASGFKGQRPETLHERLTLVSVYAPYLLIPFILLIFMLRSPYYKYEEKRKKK
Description: Binding Assay to Human ρ2/TMEM97 Receptor
Transfected HEK-293 membranes (15 μg) were incubated with 10 nM [^3H]-1,3-Di-o-tolylguanidine ( DTG) in assay buffer containing Tris-HCl 50 mM at pH 8.0. NSB (non-specific binding) was measured by adding 10 μM haloperidol. The binding of the test compound was measured at either one concentration (% inhibition at 1 or 10 μM) or five different concentrations to determine affinity values (Ki). Plates were incubated at 25° C. for 120 minutes. After the incubation period, the reaction mix was transferred to MultiScreen HTS, FC plates (Millipore), filtered and washed 3 times with ice-cold 10 mM Tris-HCL (pH 8.0). Filters were dried and counted at approximately 40% efficiency in a MicroBeta scintillation counter (Perkin-Elmer) using EcoScint liquid scintillation cocktail.

Human σ1 Receptor = molecular target: T2, Human σ1 Receptor (Homo sapiens, UniProt Q99720); assay: Human σ1 receptor radioligand assay ([3H](+)-pentazocine, transfected HEK-293 membranes); conditions: human σ1, [3H](+)-pentazocine 5 nM, binding expressed as Ki, read-out: Binding σ-1
T2 construct: expressed in transfected cells; host or cells: HEK-293
T2 sequence (Q99720 whole entry): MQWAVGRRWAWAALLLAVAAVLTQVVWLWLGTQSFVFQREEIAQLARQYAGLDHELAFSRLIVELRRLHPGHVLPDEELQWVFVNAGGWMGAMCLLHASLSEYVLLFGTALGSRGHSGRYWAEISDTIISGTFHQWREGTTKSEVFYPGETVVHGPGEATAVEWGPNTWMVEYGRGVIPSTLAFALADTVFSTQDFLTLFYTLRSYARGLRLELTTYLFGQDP
Description: Human σ1 Receptor Radioligand Assay
Transfected HEK-293 membranes (7 μg) were incubated with 5 nM of [^3H](+)-pentazocine in assay buffer containing Tris-HCl 50 mM at pH 8. NBS (non-specific binding) was measured by adding 10 μM haloperidol. The binding of the test compound was measured at either one concentration (% inhibition at 1 or 10 μM) or five different concentrations to determine affinity values (Ki). Plates were incubated at 37° C. for 120 minutes. After the incubation period, the reaction mix was then transferred to MultiScreen HTS, FC plates (Millipore), filtered and plates were washed 3 times with ice-cold 10 mM Tris-HCL (pH 7.4). Filters were dried and counted at approximately 40% efficiency in a MicroBeta scintillation counter (Perkin-Elmer) using EcoScint liquid scintillation cocktail.

FC(F)(F)c1cc(-c2cnn3cc(CN4CCCC4)cnc23)ccn1 [Example 1, 6-(Pyrrolidin-1-ylmethyl)-3-(2-(trifluoromethyl)pyridin-4-yl)pyrazolo[1,5-a]pyrimidine]
Ki (Human σ2/TMEM97 receptor): > 1000 nM
Ki (Human σ1 Receptor): < 100 nM

c1cc(-c2cnn3cc(CN4CCCC4)cnc23)ccn1 [Example 2, 3-(Pyridin-4-yl)-6-(pyrrolidin-1-ylmethyl)pyrazolo[1,5-a]pyrimidine]
Ki (Human σ2/TMEM97 receptor): > 1000 nM
Ki (Human σ1 Receptor): 100 to 500 nM

Fc1cnccc1-c1cnn2cc(CN3CCCC3)cnc12 [Example 3, 3-(3-Fluoropyridin-4-yl)-6-(pyrrolidin-1-ylmethyl)pyrazolo[1,5-a]pyrimidine]
Ki (Human σ2/TMEM97 receptor): > 1000 nM
Ki (Human σ1 Receptor): < 100 nM

COc1ncccc1-c1cnn2cc(CN3CCCC3)cnc12 [Example 4, 3-(2-Methoxypyridin-3-yl)-6-(pyrrolidin-1-ylmethyl)pyrazolo[1,5-a]pyrimidine]
Ki (Human σ2/TMEM97 receptor): > 1000 nM
Ki (Human σ1 Receptor): < 100 nM

c1ccc(C2CCN(Cc3cnc4c(-c5ccncc5)cnn4c3)CC2)cc1 [Example 5, 6-((4-Phenylpiperidin-1-yl)methyl)-3-(pyridin-4-yl)pyrazolo[1,5-a]pyrimidine]
Ki (Human σ2/TMEM97 receptor): > 1000 nM
Ki (Human σ1 Receptor): < 100 nM

FC(F)(F)c1cc(-c2cnn3cc(CN4CCC(c5ccccc5)CC4)cnc23)ccn1 [Example 6, 6-((4-Phenylpiperidin-1-yl)methyl)-3-(2-(trifluoromethyl)pyridin-4-yl)pyrazolo[1,5-a]pyrimidine]
Ki (Human σ2/TMEM97 receptor): 100 to 500 nM
Ki (Human σ1 Receptor): < 100 nM

FC(F)(F)c1cc(-c2cnn3cc(CN4CCC5(CCO5)CC4)cnc23)ccn1 [Example 7, 7-((3-(2-(Trifluoromethyl)pyridin-4-yl)pyrazolo[1,5-a]pyrimidin-6-yl)methyl)-1-oxa-7-azaspiro[3.5]nonane]
Ki (Human σ2/TMEM97 receptor): > 1000 nM
Ki (Human σ1 Receptor): 100 to 500 nM

Fc1cnccc1-c1cnn2cc(CN3CCC4(CCO4)CC3)cnc12 [Example 8, 7-((3-(3-Fluoropyridin-4-yl)pyrazolo[1,5-a]pyrimidin-6-yl)methyl)-1-oxa-7-azaspiro[3.5]nonane]
Ki (Human σ2/TMEM97 receptor): > 1000 nM
Ki (Human σ1 Receptor): 500 to 1000 nM

FC(F)(F)c1cc(-c2cnn3cc(CN4CCC5(CC4)COC5)cnc23)ccn1 [Example 9, 7-((3-(2-(Trifluoromethyl)pyridin-4-yl)pyrazolo[1,5-a]pyrimidin-6-yl)methyl)-2-oxa-7-azaspiro[3.5]nonane]
Ki (Human σ2/TMEM97 receptor): > 1000 nM
Ki (Human σ1 Receptor): < 100 nM

FC(F)(F)c1cc(-c2cnn3cc(CN4CCC5(CCOC5)CC4)cnc23)ccn1 [Example 10, 8-((3-(2-(Trifluoromethyl)pyridin-4-yl)pyrazolo[1,5-a]pyrimidin-6-yl)methyl)-2-oxa-8-azaspiro[4.5]decane]
Ki (Human σ2/TMEM97 receptor): > 1000 nM
Ki (Human σ1 Receptor): < 100 nM

FC1(F)CCN(Cc2cnc3c(-c4ccnc(C(F)(F)F)c4)cnn3c2)CC1 [Example 11, 6-((4,4-Difluoropiperidin-1-yl)methyl)-3-(2-(trifluoromethyl)pyridin-4-yl)pyrazolo[1,5-a]pyrimidine]
Ki (Human σ2/TMEM97 receptor): > 1000 nM
Ki (Human σ1 Receptor): 500 to 1000 nM

CCN(CC)Cc1cnc2c(-c3ccnc(C(F)(F)F)c3)cnn2c1 [Example 12, N-Ethyl-N-((3-(2-(trifluoromethyl)pyridin-4-yl)pyrazolo[1,5-a]pyrimidin-6-yl)methyl)ethanamine]
Ki (Human σ2/TMEM97 receptor): > 1000 nM
Ki (Human σ1 Receptor): < 100 nM

FC(F)(F)c1ccc(-c2cnn3cc(CN4CCC5(CC4)COC5)cnc23)cn1 [Example 13, 7-((3-(6-(Trifluoromethyl)pyridin-3-yl)pyrazolo[1,5-a]pyrimidin-6-yl)methyl)-2-oxa-7-azaspiro[3.5]nonane]
Ki (Human σ2/TMEM97 receptor): 500 to 1000 nM
Ki (Human σ1 Receptor): < 100 nM

FC(F)(F)c1cccc(-c2cnn3cc(CN4CCC5(CC4)COC5)cnc23)n1 [Example 14, 7-((3-(6-(Trifluoromethyl)pyridin-2-yl)pyrazolo[1,5-a]pyrimidin-6-yl)methyl)-2-oxa-7-azaspiro[3.5]nonane]
Ki (Human σ2/TMEM97 receptor): 500 to 1000 nM
Ki (Human σ1 Receptor): < 100 nM

Cc1cc(-c2cnn3cc(CN4CCC5(CC4)COC5)cnc23)ccn1 [Example 15, 7-((3-(2-Methylpyridin-4-yl)pyrazolo[1,5-a]pyrimidin-6-yl)methyl)-2-oxa-7-azaspiro[3.5]nonane]
Ki (Human σ2/TMEM97 receptor): > 1000 nM
Ki (Human σ1 Receptor): < 100 nM

Clc1cc(-c2cnn3cc(CN4CCC5(CC4)COC5)cnc23)ccn1 [Example 16, 7-((3-(2-Chloropyridin-4-yl)pyrazolo[1,5-a]pyrimidin-6-yl)methyl)-2-oxa-7-azaspiro[3.5]nonane]
Ki (Human σ2/TMEM97 receptor): > 1000 nM
Ki (Human σ1 Receptor): < 100 nM

FC(F)(F)c1ccncc1-c1cnn2cc(CN3CCC4(CC3)COC4)cnc12 [Example 17, 7-((3-(4-(Trifluoromethyl)pyridin-3-yl)pyrazolo[1,5-a]pyrimidin-6-yl)methyl)-2-oxa-7-azaspiro[3.5]nonane]
Ki (Human σ2/TMEM97 receptor): > 1000 nM
Ki (Human σ1 Receptor): < 100 nM

c1ccc(-c2cnn3cc(CN4CCC5(CC4)COC5)cnc23)nc1 [Example 18, 7-((3-(Pyridin-2-yl)pyrazolo[1,5-a]pyrimidin-6-yl)methyl)-2-oxa-7-azaspiro[3.5]nonane]
Ki (Human σ2/TMEM97 receptor): > 1000 nM
Ki (Human σ1 Receptor): 500 to 1000 nM

FC(F)(F)c1cnccc1-c1cnn2cc(CN3CCC4(CC3)COC4)cnc12 [Example 19, 7-((3-(3-(Trifluoromethyl)pyridin-4-yl)pyrazolo[1,5-a]pyrimidin-6-yl)methyl)-2-oxa-7-azaspiro[3.5]nonane]
Ki (Human σ2/TMEM97 receptor): > 1000 nM
Ki (Human σ1 Receptor): < 100 nM

Cc1nn2cc(CN3CCC4(CC3)COC4)cnc2c1-c1ccnc(C(F)(F)F)c1 [Example 20, 7-((2-Methyl-3-(2-(trifluoromethyl)pyridin-4-yl)pyrazolo[1,5-a]pyrimidin-6-yl)methyl)-2-oxa-7-azaspiro[3.5]nonane]
Ki (Human σ2/TMEM97 receptor): 500 to 1000 nM
Ki (Human σ1 Receptor): 100 to 500 nM

COC1CCN(Cc2cnc3c(-c4ccc(C(F)(F)F)nc4)cnn3c2)CC1 [Example 21, 6-((4-Methoxypiperidin-1-yl)methyl)-3-(6-(trifluoromethyl)pyridin-3-yl)pyrazolo[1,5-a]pyrimidine]
Ki (Human σ2/TMEM97 receptor): > 1000 nM
Ki (Human σ1 Receptor): < 100 nM

FC(F)(F)c1ccc(-c2cnn3cc(CN4CC5(CCOCC5)C4)cnc23)cn1 [Example 22, 2-((3-(6-(Trifluoromethyl)pyridin-3-yl)pyrazolo[1,5-a]pyrimidin-6-yl)methyl)-7-oxa-2-azaspiro[3.5]nonane]
Ki (Human σ2/TMEM97 receptor): > 1000 nM
Ki (Human σ1 Receptor): < 100 nM

COC1CCN(Cc2cnc3c(-c4ccnc(C)c4)cnn3c2)CC1 [Example 23, 6-((4-Methoxypiperidin-1-yl)methyl)-3-(2-methylpyridin-4-yl)pyrazolo[1,5-a]pyrimidine]
Ki (Human σ2/TMEM97 receptor): > 1000 nM
Ki (Human σ1 Receptor): 100 to 500 nM

Cc1cc(-c2cnn3cc(CN4CCCOCC4)cnc23)ccn1 [Example 24, 4-((3-(2-Methylpyridin-4-yl)pyrazolo[1,5-a]pyrimidin-6-yl)methyl)-1,4-oxazepane]
Ki (Human σ2/TMEM97 receptor): > 1000 nM
Ki (Human σ1 Receptor): 100 to 500 nM

COCC1CCN(Cc2cnc3c(-c4ccnc(C)c4)cnn3c2)CC1 [Example 25, 6-((4-(Methoxymethyl)piperidin-1-yl)methyl)-3-(2-methylpyridin-4-yl)pyrazolo[1,5-a]pyrimidine]
Ki (Human σ2/TMEM97 receptor): > 1000 nM
Ki (Human σ1 Receptor): < 100 nM

Cc1cc(-c2cnn3cc(CN4CCC5(CCOCC5)CC4)cnc23)ccn1 [Example 26, 9-((3-(2-Methylpyridin-4-yl)pyrazolo[1,5-a]pyrimidin-6-yl)methyl)-3-oxa-9-azaspiro[5.5]undecane]
Ki (Human σ2/TMEM97 receptor): > 1000 nM
Ki (Human σ1 Receptor): 100 to 500 nM

Cc1cc(-c2cnn3cc(CN4CC5(CCOCC5)C4)cnc23)ccn1 [Example 27, 2-((3-(2-Methylpyridin-4-yl)pyrazolo[1,5-a]pyrimidin-6-yl)methyl)-7-oxa-2-azaspiro[3.5]nonane]
Ki (Human σ2/TMEM97 receptor): > 1000 nM
Ki (Human σ1 Receptor): < 100 nM

COCC1CCN(Cc2cnc3c(-c4ccnc(C(F)(F)F)c4)cnn3c2)CC1 [Example 28, 6-((4-(Methoxymethyl)piperidin-1-yl)methyl)-3-(2-(trifluoromethyl)pyridin-4-yl)pyrazolo[1,5-a]pyrimidine]
Ki (Human σ2/TMEM97 receptor): 500 to 1000 nM
Ki (Human σ1 Receptor): < 100 nM

FC(F)(F)c1cc(-c2cnn3cc(CN4CCOCC4)cnc23)ccn1 [Example 29, 4-((3-(2-(Trifluoromethyl)pyridin-4-yl)pyrazolo[1,5-a]pyrimidin-6-yl)methyl)morpholine]
Ki (Human σ2/TMEM97 receptor): > 1000 nM
Ki (Human σ1 Receptor): > 1000 nM

CCOCC1CCN(Cc2cnc3c(-c4ccnc(C(F)(F)F)c4)cnn3c2)CC1 [Example 30, 6-((4-(Ethoxymethyl)piperidin-1-yl)methyl)-3-(2-(trifluoromethyl)pyridin-4-yl)pyrazolo[1,5-a]pyrimidine]
Ki (Human σ2/TMEM97 receptor): 500 to 1000 nM
Ki (Human σ1 Receptor): < 100 nM

FC(F)(F)c1cc(-c2cnn3cc(CN4CCCOCC4)cnc23)ccn1 [Example 31, 4-((3-(2-(Trifluoromethyl)pyridin-4-yl)pyrazolo[1,5-a]pyrimidin-6-yl)methyl)-1,4-oxazepane]
Ki (Human σ2/TMEM97 receptor): 100 to 500 nM
Ki (Human σ1 Receptor): < 100 nM

FC(F)(F)c1cc(-c2cnn3cc(CN4CCC5(CCOCC5)CC4)cnc23)ccn1 [Example 32, 9-((3-(2-(Trifluoromethyl)pyridin-4-yl)pyrazolo[1,5-a]pyrimidin-6-yl)methyl)-3-oxa-9-azaspiro[5.5]undecane]
Ki (Human σ2/TMEM97 receptor): 100 to 500 nM
Ki (Human σ1 Receptor): < 100 nM
